The source of these data is the NIST ThermoML archive (doi:10.1016/j.jct.2009.06.009).

Where “and” joins values, the source holds several entries; their conditions need not be identical. Equal entries are not always repeated. ± gives the expanded uncertainty stated by the source.

The conditions of this data set: Liquid, Closed cell (Static) method.

Broadly, the vapor or sublimation pressure is the equilibrium pressure above the liquid or solid.

On to `CCCC` [butane], for which the “vapor or sublimation pressure” value by setting is: (283.15 K) 148 ± 2 kPa; (293.15 K) 208 ± 2 kPa; (303.15 K) 282 ± 2 kPa; (313.15 K) 378 ± 2 kPa.

With `CCC` [propane], the “vapor or sublimation pressure” value is 638 ± 3 kPa (283.15 K), 840 ± 3 kPa (293.15 K), 1083 ± 3 kPa (303.15 K) and 1375 ± 4 kPa (313.15 K).

As for `FC(F)F` [trifluoromethane], the “vapor or sublimation pressure” value was 3246 ± 9 kPa and 3242 ± 9 kPa (283.15 K); 4158 ± 10 kPa and 4162 ± 10 kPa (293.15 K).
